US11185531B2, “Arginine methyltransferase inhibitors and uses thereof” (Epizyme, Inc., priority 2013, dated 2021)

How the values were obtained:
human PRMT6 = biological target: T1, human PRMT6 (Homo sapiens, UniProt Q96LA8); test: PRMT6 Biochemical Assay (3H-SAM Flashplate, peptide substrate); details: 30 min preincubation
T1 construct: Flag-PRMT6-His was eluted with 200 ug/ml FLAG peptide in the same buffer; made in house; host or cells: HEK 293F cells (BacMam baculovirus, pFastBacMam)
Description: Peptide representative of human histone H4 residues 36-50 was synthesized with an N-terminal linker-affinity tag motif and a C-terminal amide cap by 21st Century Biochemicals. The peptide was purified by high-performance liquid chromatography (HPLC) to greater than 95% purity and confirmed by liquid chromatography mass spectrometry (LC-MS). The sequence was Biot-Ahx-[…]-amide and contained a monomethylated lysine at position 44 (SEQ ID NO:5).
Full-length human PRMT6 (NM_018137.2) transcript clone was amplified from an HEK 293 cDNA library, incorporating a flanking 5′ sequence encoding a FLAG tag ([…]) (SEQ ID NO:6) fused directly to Ser 2 of PRMT6 and a 3′ sequence encoding a hexa His sequence (HHHHHH) fused directly to Asp 375. The amplified gene was subcloned into pFastBacMam (Viva Biotech).
Column was washed with 20 mM imidazole in the same buffer and Flag-PRMT6-His was eluted with 150 mM imidazole. Pooled fractions were dialysed against buffer Ni-A and further purified by anti-flag M2 affinity chromatography. Flag-PRMT6-His was eluted with 200 ug/ml FLAG peptide in the same buffer. Pooled fractions were dialysed in 20 mM Tris, 150 mM NaCl, 10% glycerol and 5 mM 3-mercaptoethanol, pH 7.8. The purity of recovered protein was 95%.
General Procedure for PRMT6 Enzyme Assays on Peptide Substrates.
The assays were all performed in a buffer consisting of 20 mM Bicine (pH=7.6), 1 mM TCEP, 0.005% BSG, and 0.002% Tween 20, prepared on the day of use. Compounds in 100% DMSO (1 ul) were spotted into a polypropylene 384-well V-bottom plates (Greiner) using a Platemate Plus outfitted with a 384-channel head (Thermo Scientific). DMSO (1 ul) was added to Columns 11, 12, 23, 24, rows A-H for the maximum signal control and 1 ul of SAH, a known product and inhibitor of PRMT6, was added to columns 11, 12, 23, 24, rows I-P for the minimum signal control. A cocktail (40 ul) containing the PRMT6 enzyme was added by Multidrop Combi (Thermo-Fisher). The compounds were allowed to incubate with PRMT6 for 30 min at room temperature, then a cocktail (10 ul) containing SAM and peptide was added to initiate the reaction (final volume=51 ul). The final concentrations of the components were as follows: PRMT6 was 1 nM, ^3H-SAM was 200 nM, non-radiolabeled SAM was 250 nM, peptide was 75 nM, SAH in the minimum signal control wells was 1 mM, and the DMSO concentration was 2%. The assays were stopped by the addition of non-radiolabeled SAM (10 ul) to a final concentration of 400 uM, which dilutes the ^3H-SAM to a level where its incorporation into the peptide substrate is no longer detectable. 50 ul of the reaction in the 384-well polypropylene plate was then transferred to a 384-well Flashplate and the biotinylated peptides were allowed to bind to the streptavidin surface for at least 1 hour before being washed once with 0.1% Tween20 in a Biotek ELx405 plate washer. The plates were then read in a PerkinElmer TopCount plate reader to measure the quantity of ^3H-labeled peptide bound to the Flashplate surface, measured as disintegrations per minute (dpm) or alternatively, referred to as counts per minute (cpm).
(§1) Where dpm=disintegrations per minute, cmpd=signal in assay well, and min and max are the respective minimum and maximum signal controls.
(§2) Where top and bottom are the normally allowed to float, but may be fixed at 100 or 0 respectively in a 3-parameter fit. The Hill Coefficient normally allowed to float but may also be fixed at 1 in a 3-parameter fit. Y is the % inhibition and X is the compound concentration.

human PRMT8 = biological target: T2, human PRMT8 (Homo sapiens, UniProt Q9NR22); test: PRMT8 Biochemical Assay (3H-SAM Flashplate, peptide substrate); details: 30 min preincubation
T2 construct: Full-length human PRMT8 (NM_019854.4) isoform 1 transcript clone; GST (N, cleaved yes); made in house; host or cells: E. coli BL21(DE3) Gold
T2 sequence (Q9NR22 whole entry, canonical isoform): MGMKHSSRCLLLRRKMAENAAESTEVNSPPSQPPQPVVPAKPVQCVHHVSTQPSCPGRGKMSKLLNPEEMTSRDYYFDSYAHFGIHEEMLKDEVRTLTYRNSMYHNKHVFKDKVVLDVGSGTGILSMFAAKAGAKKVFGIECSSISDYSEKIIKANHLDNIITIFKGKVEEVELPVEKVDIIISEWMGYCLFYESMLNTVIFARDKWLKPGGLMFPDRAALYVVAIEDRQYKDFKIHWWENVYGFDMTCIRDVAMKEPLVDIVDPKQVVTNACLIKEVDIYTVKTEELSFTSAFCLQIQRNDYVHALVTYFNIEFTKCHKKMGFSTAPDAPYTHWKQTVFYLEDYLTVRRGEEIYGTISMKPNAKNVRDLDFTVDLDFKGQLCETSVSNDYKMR
Description: Peptide representative of human histone H4 residues 31-45 was synthesized with an N-terminal linker-affinity tag motif and a C-terminal amide cap by 21st Century Biochemicals. The peptide was purified by high-performance liquid chromatography (HPLC) to greater than 95% purity and confirmed by liquid chromatography mass spectrometry (LC-MS). The sequence was Biot-Ahx-[…]-amide (SEQ ID NO:8).
The resulting construct encodes an N-terminal GST tag and a thrombin cleavage sequence
GST-tagged PRMT8 was eluted with 50 mM Tris, 2 mM glutathione, pH 7.8. Pooled fractions were cleaved by thrombin (10 U) and dialysed in buffer A. GST was removed by reloading the cleaved protein sample onto glutathione sepharose column and PRMT8 was collected in the flow-through fractions. PRMT8 was purified further by ceramic hydroxyapatite chromatography. The column was washed with 50 mM phosphate buffer, 100 mM NaCl, 5% glycerol, 5 mM 3-mercaptoethanol, pH 7.8 and PRMT8 was eluted by 100 mM phosphate in the same buffer. Protein was concentrated and buffer was exchanged to 50 mM Tris, 300 mM NaCl, 10% glycerol, 5 mM β-mercaptoethanol, pH 7.8 by ultrafiltration. The purity of recovered protein was 89%.
General Procedure for PRMT8 Enzyme Assays on Peptide Substrates.
The assays were all performed in a buffer consisting of 20 mM Bicine (pH=7.6), 1 mM TCEP, 0.005% BSG, and 0.002% Tween 20, prepared on the day of use. Compounds in 100% DMSO (1 ul) were spotted into a polypropylene 384-well V-bottom plates (Greiner) using a Platemate Plus outfitted with a 384-channel head (Thermo Scientific). DMSO (1 ul) was added to Columns 11, 12, 23, 24, rows A-H for the maximum signal control and 1 ul of SAH, a known product and inhibitor of PRMT8, was added to columns 11, 12, 23, 24, rows I-P for the minimum signal control. A cocktail (40 ul) containing the PRMT8 enzyme was added by Multidrop Combi (Thermo-Fisher). The compounds were allowed to incubate with PRMT8 for 30 min at room temperature, then a cocktail (10 ul) containing ^3H-SAM and peptide was added to initiate the reaction (final volume=51 ul). The final concentrations of the components were as follows: PRMT8 was 1.5 nM, ^3H-SAM was 50 nM, non-radiolabeled SAM was 550 nM, peptide was 150 nM, SAH in the minimum signal control wells was 1 mM, and the DMSO concentration was 2%. The assays were stopped by the addition of non-radiolabeled SAM (10 ul) to a final concentration of 400 uM, which dilutes the ^3H-SAM to a level where its incorporation into the peptide substrate is no longer detectable. 50 ul of the reaction in the 384-well polypropylene plate was then transferred to a 384-well Flashplate and the biotinylated peptides were allowed to bind to the streptavidin surface for at least 1 hour before being washed once with 0.1% Tween20 in a Biotek ELx405 plate washer. The plates were then read in a PerkinElmer TopCount plate reader to measure the quantity of ^3H-labeled peptide bound to the Flashplate surface, measured as disintegrations per minute (dpm) or alternatively, referred to as counts per minute (cpm).
as §1, §2

T1 sequence (Q96LA8 with tags, fused parts or gaps): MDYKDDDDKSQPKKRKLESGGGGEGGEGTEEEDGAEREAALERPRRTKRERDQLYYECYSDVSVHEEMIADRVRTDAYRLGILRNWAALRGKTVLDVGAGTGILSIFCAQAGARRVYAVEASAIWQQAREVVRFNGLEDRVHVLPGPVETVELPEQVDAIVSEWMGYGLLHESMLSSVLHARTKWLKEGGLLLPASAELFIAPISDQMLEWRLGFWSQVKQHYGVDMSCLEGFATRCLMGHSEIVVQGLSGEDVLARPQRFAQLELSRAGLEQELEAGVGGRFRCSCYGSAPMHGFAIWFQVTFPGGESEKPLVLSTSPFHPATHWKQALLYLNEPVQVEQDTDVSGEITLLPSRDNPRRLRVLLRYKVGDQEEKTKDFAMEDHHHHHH

SMILES | IC50 (human PRMT6) [nM] | IC50 (human PRMT8) [nM]
CNCCN(C)Cc1c[nH]nc1C#Cc1cccc(OC)c1 [Compound 1] | < 100 | 101 to 1000
CNCCN(C)Cc1c[nH]nc1C#Cc1ccc(C(C)(C)C)cc1 [Compound 2] | < 100 | 101 to 1000
CNCCN(C)Cc1c[nH]nc1C#Cc1ccccc1 [Compound 3] | < 100 | 101 to 1000
CNCCN(C)Cc1c[nH]nc1C#Cc1ccc(F)cc1 [Compound 4] | < 100 | 101 to 1000
CNCCN(C)Cc1c[nH]nc1/C=C/c1ccc(-c2ccccc2)cc1 [Compound 5] | < 100 | 101 to 1000
CNCCN(C)Cc1c[nH]nc1/C=C/c1ccc(C(F)(F)F)cc1 [Compound 6] | < 100 | 101 to 1000
CNCCN(C)Cc1c[nH]nc1/C=C/c1ccc(OC)cc1 [Compound 7] | < 100 | 101 to 1000
Cc1ccc(/C=C/c2n[nH]cc2CN(C)CCN)cc1 [Compound 8] | < 100 | 101 to 1000
CN(CCN)Cc1c[nH]nc1C1=CCOCC1 [Compound 10] | 101 to 1000 | 1010 to 3000
COc1cc(/C=C/c2n[nH]cc2CN(C)CCN)cc(OC)c1 [Compound 11] | < 100 | 101 to 1000
CN(CCN)Cc1c[nH]nc1/C=C/c1ccc(F)cc1F [Compound 13] | < 100 | 101 to 1000
CN(CCN)Cc1c[nH]nc1/C=C/c1cc(C(F)(F)F)cc(C(F)(F)F)c1 [Compound 14] | 101 to 1000 | 101 to 1000
CN(CCN)Cc1c[nH]nc1/C=C/c1cc(F)cc(F)c1 [Compound 15] | < 100 | 101 to 1000
CN(CCN)Cc1c[nH]nc1/C=C/c1cccc(C(F)(F)F)c1 [Compound 16] | 101 to 1000 | 101 to 1000
COc1cccc(/C=C/c2n[nH]cc2CN(C)CCN)c1 [Compound 17] | < 100 | 101 to 1000
CN(CCN)Cc1c[nH]nc1/C=C/c1ccc(C(F)(F)F)cc1 [Compound 18] | < 100 | < 100
COC/C=C/c1n[nH]cc1CN(C)CCN [Compound 19] | 101 to 1000 | 1010 to 3000
CN(CCN)Cc1c[nH]nc1/C=C/c1cccc(F)c1 [Compound 20] | < 100 | 101 to 1000
CC(C)c1n[nH]cc1CN(C)CCN [Compound 21] | 101 to 1000 | 3010 to 10000
CN(CCN)Cc1c[nH]nc1C1CCCCC1 [Compound 22] | < 100 | 101 to 1000

SMILES | IC50 (human PRMT6) [nM] | IC50 (human PRMT8) [nM]
CN(CCN)Cc1c[nH]nc1CCc1ccc(F)cc1 [Compound 23, N^1-((3-(4-fluorophenethyl)-1H-pyrazol-4-yl)methyl)-N^1-methylethane-1,2-diamine] | < 100 | 101 to 1000
CN(CCN)Cc1c[nH]nc1/C=C/Cc1ccccc1 [Compound 24] | 101 to 1000 | 101 to 1000
CN(CCN)Cc1c[nH]nc1C1=CCCC1 [Compound 25] | 101 to 1000 | 1010 to 3000
CN(CCN)Cc1c[nH]nc1C1CCC1 [Compound 26] | 101 to 1000 | 3010 to 10000
CC(C)Cc1n[nH]cc1CN(C)CCN [Compound 28, N^1-((3-iso-butyl-1H-pyrazol-4-yl)methyl)-N^1-methylethane-1,2-diamine] | < 100 | 1010 to 3000
CCCc1n[nH]cc1CN(C)CCN [Compound 29] | 101 to 1000 | 1010 to 3000
Cc1n[nH]cc1CN(C)CCN [Compound 30] | 101 to 1000 | 3010 to 10000
CN(CCN)Cc1c[nH]nc1C1CCCC1 [Compound 31] | 3010 to 10000 | > 10000
CNCCN(C)Cc1c[nH]nc1C1CCN(C(=O)Cc2ccccc2)CC1 [Compound 32] | < 100 | 1010 to 3000
CN(CCN)Cc1n[nH]cc1C1CCCCC1 [Compound 33] | < 100 | 101 to 1000
CNCCN(C)Cc1c[nH]nc1C1CCN(C(=O)C(C)C)CC1 [Compound 34] | < 100 | 101 to 1000
CC1CCC(c2c[nH]nc2CN(C)CCN)CC1 (centres unmarked) [Compound 35] | < 100 | 101 to 1000
CN(CCN)Cc1n[nH]cc1C1CCC(C)(C)CC1 [Compound 36] | < 100 | 101 to 1000
CC1CCC(c2n[nH]cc2CN(C)CCN)CC1 (centres unmarked) [Compound 37, N^1-methyl-N^1-((3-(4-methylcyclohexyl)-1H-pyrazol-4-yl)methyl)ethane-1,2-diamine] | < 100 | 101 to 1000
CN(CCN)Cc1c[nH]nc1C1CCC(C)(C)CC1 [Compound 38, N^1-((3-(4,4-dimethylcyclohexyl)-1H-pyrazol-4-yl)methyl)-N^1-methylethane-1,2-diamine] | < 100 | 101 to 1000
CNCCN(C)Cc1c[nH]nc1C1CCN(CC(C)C)CC1 [Compound 39, N^1-((3-(1-isobutylpiperidin-4-yl)-1H-pyrazol-4-yl)methyl)-N^1,N^2-dimethylethane-1,2-diamine] | < 100 | 101 to 1000
CNCCN(C)Cc1c[nH]nc1C1CCN(C)CC1 [Compound 41] | < 100 | 3010 to 10000
CNCCN(C)Cc1c[nH]nc1C1CCNCC1 [Compound 42] | < 100 | 101 to 1000
CN(CCN)Cc1n[nH]cc1C1CCC(N2CCOCC2)CC1 (centres unmarked) [Compound 44, N^1-methyl-N^1-((4-(4-morpholinocyclohexyl)-1H-pyrazol-3-yl)methyl)ethane-1,2-diamine] | 101 to 1000 | –
